Measurements reported in patent US20090158455A1, “COMPOSITIONS AND METHODS FOR MODULATING LYSINE PRODUCTION” (priority 2005, published 2009).

Assays:
Arabidopsis LL-DAP-AT = target: T1, Arabidopsis LL-DAP-AT (Arabidopsis thaliana, UniProt Q93ZN9); assay: OAB assay of LL-DAP-AT activity in Arabidopsis leaf extract; type: biochemical; conditions: added at 1,000-fold excess over LL-DAP; data not shown
T1 construct: The protein extract was prepared from Arabidopsis leaves by grinding in liquid nitrogen; from tissue; host or cells: Arabidopsis leaves / axenically grown plants, crude soluble extract
Procedure: FIGS. 2A and 2B. LL-DAP-AT activity in Arabidopsis. […] The reaction was incubated at 30° C. The protein extract was prepared from Arabidopsis leaves by grinding in liquid nitrogen with 100 mM HEPESKOH (pH 7.6), centrifugation at 10,000 g for 15 min, and buffer exchange using an Amicon Ultra 30,000 MWCO filter.
(§1) For enzyme assays of crude proteins, extracts were prepared by grinding tissue in liquid nitrogen with 100 mM HEPESKOH (pH 7.6), followed by centrifugation at 10,000 g for 15 min, and then buffer exchange using an Amicon Ultra 30,000 MWCO filter. […] Reactions were incubated at 30° C. and the ΔA (440 nm) measured continuously. […] The reaction was incubated at 30° C., and the decrease in A340 was measured. […] The reaction was run to completion, determined by monitoring the increase in A340. […] The kinetic constants were calculated by nonlinear regression analysis using GraphPad Prizm version 4.03.
The rate of the reaction was directly proportional to the amount of protein extract added (FIG. 2B). […] If the extract was heated in a boiling water bath for 5 min, the activity was completely destroyed. […] Moreover, since the source material was axenically grown, the activity must have been derived from the Arabidopsis rather than a contaminating microorganism.

CT390 [1] = target: T2, CT390 (Chlamydia trachomatis serovar D, UniProt O84395); assay: Quantitative reverse assay of pure CT390; type: biochemical; conditions: for Use as amino donor by CT390: reverse direction; for Km: reverse assay, apparent Km
T2 construct: His-Tag (N); made in house; host or cells: E. coli

AGD2 protein (At4g33680) = AGD2 protein (At4g33680) (Arabidopsis thaliana, UniProt Q93ZN9); conditions: transamination of Lys, Song et al. (2004); cited from earlier work
[2] = target: Methanothermobacter thermautotrophicus LL-DAP transaminase MTH52 (Methanothermobacter thermautotrophicus, UniProt O26158); assay: Quantitative forward and reverse assays of purified LL-DAP transaminases (Example III); conditions: reverse assay
Procedure: This plasmid was transformed into E. coli BL21-CodonPlus®-RIPL for expression and purification of the recombinant protein.
For protein expression the E. coli strains were grown on LB at 37° C. to an OD600 nm of 0.5 and protein expression was then induced with 1 mM IPTG for 4 hr at 25° C. Cells were lysed by sonication in a solution of 50 mM sodium phosphate and 300 mM NaCl (pH 8.0). Metabolites in the extract were removed by buffer exchange using an Amicon Ultra 30,000 MWCO ultrafilter and sodium phosphate/NaCl buffer, and the concentrated soluble protein sample was used for measurement of enzyme activity as an initial assessment of enzyme function. When the recombinant protein was to be purified a larger cell culture was grown and lysed as described above, but the buffer exchange step was not carried out. […] The pure protein was then concentrated in an Amicon Ultra 30,000 MWCO ultrafilter, replacing the elution buffer with 100 mM HepesKOH, pH 7.6.

LL-DAP transaminase [3] = assay: Quantitative forward assay of purified microbial LL-DAP transaminases; type: biochemical
Procedure: (§2) Enzyme assays were performed as described above in Examples I and II.
(§3) The catalytic properties of sll0480, BF2643, Dhaf—3980, MTH52, and SfumDRAFT0821 were studied in greater detail using purified enzymes to determine their kinetic constants using quantitative forward and reverse assays.

LL-DAP transaminase [4] = assay: Quantitative reverse assay of purified microbial LL-DAP transaminases; type: biochemical; conditions: reverse
Procedure: as §2, §3

[5] = target: A. thaliana LL-DAP transaminase (Arabidopsis thaliana, UniProt Q93ZN9); assay: Inhibitors of LL-DAP transaminase, m-DAP dehydrogenase coupled assay; type: biochemical; conditions: inhibitor 40 mM, substrate LL-DAP 0.05 mM
Procedure: as §1
(§4) Assays for assessing the ability of certain compounds to inhibit LL-DAP aminotransferase have been performed and the results are shown below in Table V. The reactions were performed as described above.

CT390 [6] = target: T2, CT390; assay: Quantitative forward assay of pure CT390; type: biochemical; conditions: apparent Km
Procedure: All enzyme assays were carried out essentially as described in Example I. Incubation temperature was 30° C. Kinetic constants were determined by varying substrate concentrations while keeping the co-substrate level constant at the concentration described below. Kinetic data were analyzed by non-linear regression analysis using GraphPad Prizm Version 4.03.
Quantitative assay of the physiologically forward reaction was carried out sequentially in a pre-reaction to generate THDP from m-DAP followed by an LL-DAP aminotransferase assay. […] The pre-reaction was run to completion, monitored by the increase in absorbance at 340 nm resulting from NADPH formation. The aminotransferase reaction was monitored at 398 nm to measure the formation of thioNADH. […] Subsequently, the aminotransferase assay was initiated by addition of CT390, bringing the total reaction volume to 1 mL.

[7] = target: Arabidopsis thaliana LL-DAP-AT (At4g33680), wild type, recombinant (lacks first 39 amino acids, hexa-His and S-TAG), SEQ ID NO: 7 (Arabidopsis thaliana, UniProt Q93ZN9); assay: Quantitative coupled reverse and forward assays of pure recombinant LL-DAP-AT (Table III); type: biochemical
Procedure: as §1
For this reason quantitative coupled assays were developed to assess the enzyme activity in both the reverse and forward directions. […] The reaction sequence is shown in Scheme 1.
The overall reaction series is shown in Scheme 2.
Thio-NADH has an absorbance maximum at 398 nm, which can be discerned from NADPH, which has an absorbance maximum at 340 nm. FIG. 4 illustrates such a reaction. […] Two plots are shown using 0.55 and 0.055 mM m-DAP.

[8] = test system: maize LL-DAP transaminase; assay: Inhibitors of LL-DAP transaminase, ortho aminobenzaldehyde assay; type: biochemical, maize (Zea mays); conditions: substrate LL-DAP 0.5 mM
Procedure: as §1, §4

LL-DAP transaminase [9] = target: T3, LL-DAP transaminase (Synechocystis sp., UniProt Q55828); assay: Quantitative reverse assay of purified microbial LL-DAP transaminases; type: biochemical; conditions: keto acids (5 mM) substituted for 2-oxoglutarate in reverse and for THDPA in forward reaction
T3 construct: His-Tag; made in house; host or cells: E. coli BL21-CodonPlus-RIPL
Procedure: as §2, §3

T2 sequence (O84395 whole entry): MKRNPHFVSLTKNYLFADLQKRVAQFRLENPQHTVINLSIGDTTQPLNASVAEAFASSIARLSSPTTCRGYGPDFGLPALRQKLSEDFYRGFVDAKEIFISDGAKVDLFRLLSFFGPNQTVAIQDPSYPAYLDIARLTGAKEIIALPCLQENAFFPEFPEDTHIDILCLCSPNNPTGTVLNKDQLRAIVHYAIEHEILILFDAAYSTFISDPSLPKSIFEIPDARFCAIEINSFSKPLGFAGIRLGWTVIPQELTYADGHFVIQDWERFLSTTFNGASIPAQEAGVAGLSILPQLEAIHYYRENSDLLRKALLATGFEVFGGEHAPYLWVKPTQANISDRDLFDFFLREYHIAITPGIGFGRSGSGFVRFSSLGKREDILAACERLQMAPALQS
Chain of Arabidopsis thaliana LL-DAP-AT (At4g33680), wild type, recombinant (lacks first 39 amino acids, hexa-His and S-TAG), SEQ ID NO: 7 (Q93ZN9 40-461): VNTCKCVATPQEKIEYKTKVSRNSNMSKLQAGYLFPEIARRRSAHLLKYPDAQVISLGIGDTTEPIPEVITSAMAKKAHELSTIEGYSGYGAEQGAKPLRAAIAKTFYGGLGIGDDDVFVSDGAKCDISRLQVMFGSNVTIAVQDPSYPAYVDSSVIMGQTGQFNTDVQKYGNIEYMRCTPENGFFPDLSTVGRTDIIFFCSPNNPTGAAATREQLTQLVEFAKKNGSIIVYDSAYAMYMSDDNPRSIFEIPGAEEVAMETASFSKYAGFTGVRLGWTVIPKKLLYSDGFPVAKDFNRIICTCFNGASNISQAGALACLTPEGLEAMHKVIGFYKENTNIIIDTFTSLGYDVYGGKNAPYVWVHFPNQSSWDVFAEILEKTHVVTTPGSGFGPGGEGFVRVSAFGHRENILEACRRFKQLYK
T1 sequence (Q93ZN9 46-461): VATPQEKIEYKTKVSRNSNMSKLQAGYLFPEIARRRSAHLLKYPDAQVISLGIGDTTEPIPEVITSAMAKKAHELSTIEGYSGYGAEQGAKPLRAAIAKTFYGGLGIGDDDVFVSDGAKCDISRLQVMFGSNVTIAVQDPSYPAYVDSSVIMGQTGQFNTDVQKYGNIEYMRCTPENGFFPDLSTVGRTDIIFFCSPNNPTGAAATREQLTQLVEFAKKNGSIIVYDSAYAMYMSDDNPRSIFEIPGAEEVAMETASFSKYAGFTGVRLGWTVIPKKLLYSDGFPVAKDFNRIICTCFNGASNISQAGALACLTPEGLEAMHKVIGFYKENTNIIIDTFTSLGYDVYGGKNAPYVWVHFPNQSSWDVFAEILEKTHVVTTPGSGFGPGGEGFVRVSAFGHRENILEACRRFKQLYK
Chain of AGD2 protein (At4g33680) (Q93ZN9 46-461): as above
T3 sequence (Q55828 whole entry): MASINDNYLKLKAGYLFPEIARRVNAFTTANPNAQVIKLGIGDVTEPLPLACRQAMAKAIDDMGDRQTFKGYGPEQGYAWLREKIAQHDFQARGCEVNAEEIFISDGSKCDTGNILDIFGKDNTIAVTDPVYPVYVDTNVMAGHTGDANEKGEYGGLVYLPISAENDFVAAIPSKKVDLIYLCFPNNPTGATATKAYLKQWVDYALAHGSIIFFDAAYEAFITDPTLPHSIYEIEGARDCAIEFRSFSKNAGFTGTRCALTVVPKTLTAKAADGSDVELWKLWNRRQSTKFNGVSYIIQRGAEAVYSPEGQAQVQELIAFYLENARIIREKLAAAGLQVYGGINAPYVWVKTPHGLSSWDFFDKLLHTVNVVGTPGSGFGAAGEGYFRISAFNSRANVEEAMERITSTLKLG
Chain of A. thaliana LL-DAP transaminase (Q93ZN9 40-461): as the sequence (Q93ZN9 40-461) above
Chain of Methanothermobacter thermautotrophicus LL-DAP transaminase MTH52 (O26158 whole entry): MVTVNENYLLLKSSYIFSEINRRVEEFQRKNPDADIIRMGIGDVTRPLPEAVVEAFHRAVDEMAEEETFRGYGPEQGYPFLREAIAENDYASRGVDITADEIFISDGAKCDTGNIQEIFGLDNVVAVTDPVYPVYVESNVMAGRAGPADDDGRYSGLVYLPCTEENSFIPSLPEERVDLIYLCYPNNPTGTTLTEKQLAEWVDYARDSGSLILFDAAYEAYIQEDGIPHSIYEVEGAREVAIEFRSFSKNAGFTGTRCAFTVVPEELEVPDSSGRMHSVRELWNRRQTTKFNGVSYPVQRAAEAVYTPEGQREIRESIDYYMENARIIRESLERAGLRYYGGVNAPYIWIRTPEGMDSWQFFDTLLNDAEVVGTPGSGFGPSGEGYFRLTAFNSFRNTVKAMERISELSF

Molecule: NCCCC[C@H](N)C(=O)O [Lys, lysine]
- Inhibition of the use of LL-DAP (LL-DAP-AT activity) (Arabidopsis LL-DAP-AT): did not inhibit
- Use as amino donor by CT390 (CT390 [1]): unable to use
- Km (AGD2 protein (At4g33680)): 58800 µM

Molecule: O=C(O)CCC(=O)C(=O)O [2-OG, 2-oxoglutarate]
- Km [2]: 800 µM

Molecule: Mth52: LL-DAP transaminase from M. thermoautotrophicum
- Vmax F (LL-DAP transaminase [3]): 0.6 µmol/min/mg
- Km (LL-DAP transaminase [4]; read-out: Km 2-OG, substrate 2-OG): 800 µM
- Vmax R (LL-DAP transaminase [4]): 4.7 µmol/min/mg

Molecule: NC(CCCC(N)C(=O)O)C(=O)O (centres unmarked) [m-DAP, m-2,6-diaminopimelate]
- Inhibition of the use of LL-DAP (LL-DAP-AT activity) (Arabidopsis LL-DAP-AT): did not inhibit
- Use as amino donor by CT390 (CT390 [1]): able to use

Molecule: NC(CCC(O)C(N)C(=O)O)C(=O)O (racemic) [Threo-β-hydroxy DAP (racemic), Threo-β-hydroxy DAP]
- inhibition at 40000 µM [5]: 68%

Molecule: N[C@@H](CCSC[C@H](N)C(=O)O)C(=O)O [cystathionine]
- Use as amino donor by CT390 (CT390 [1]): unable to use

Molecule: N[C@@H](CCC(=O)O)C(=O)O [Glu, glutamate, reference compound]
- Km (CT390 [6]): 1000 µM

Molecule: O=C(O)C1=N[C@H](C(=O)O)CCC1 [THDPA, L-2,3,4,5-tetrahydrodipicolinate]
- Km (CT390 [6]): 200 µM
- Kcat ([7]; forward assay, pH 7.5): 0.3 s⁻¹

Molecule: NC(CCCCC(=O)O)C(=O)O (racemic) [L, D-α-aminopimelate]
- Inhibition % ([8]; inhibitor 5 mM): 50+ %
- Inhibition % ([8]; inhibitor 10 mM): 83+ %

Molecule: sII0480: LL-DAP transaminase from Synechocystis sp.
- Vmax F (LL-DAP transaminase [3]): 0.25 µmol/min/mg
- Keto acid specificity (LL-DAP transaminase [9]): active only with 2-oxoglutarate or THDPA
- Vmax R (LL-DAP transaminase [4]): 3.3 µmol/min/mg

Molecule: O=C(O)CCC(=O)C(=O)O [2-OG, 2-oxoglutarate, reference compound]
- Km (CT390 [1]): 650 µM

Molecule: N[C@@H](CCC[C@H](N)C(=O)O)C(=O)O [LL-DAP, LL-2,6-diaminopimelate]
- Km (CT390 [1]): 20 µM
- Km for LL-DAP lower than the value for Lys ([7]; compared with Km of 58.8 mM for Lys of Song et al. (2004)): 830 fold
- Kcat ([7]; reverse assay, pH 7.5, 30° C.): 17.6 s⁻¹
